In publication PMC11324436 (2024):

How the values were obtained:
Assay in all cases: NMM fluorescence enhancement
[1] = test system: Oligo 5637 (DNA, single strand) GCCTGTTGTGAGCCTCCTGTCGAAGTATGCGATAGGAGCGAATGATATATATCAAGTTACCACACGGATGTACTTGCTTGAGCGTTTATTCTTGTCTCCC; conditions: 10 mM KCl, 2 mM MgSO4 (added), 0.37 mM CaCl2; SSMB1 pH 5.9, 23 °C; 2 µM aptamer, 2 µM NMM; no enhancement over control
[2] = test system: 15THR1A (DNA, aptamer) GGTTGGTGTGGTTGG; conditions: 10 mM KCl, 2 mM MgSO4 (added), 0.37 mM CaCl2; SSMB1 pH 5.9, 23 °C; 2 µM aptamer, 2 µM NMM
[3] = test system: 55PYO4A (DNA, aptamer) GATCGGAATGGGAGCGAATGAGGAGGGAGCGCGGACATGGTGCAGCAGCCCGACG; conditions: 10 mM KCl, 2 mM MgSO4 (added), 0.37 mM CaCl2; SSMB1 pH 5.9, 23 °C; 2 µM aptamer, 2 µM NMM
[4] = test system: 55PYO2A (DNA, aptamer) CTAGGAATCAGGAGCGAATGTTAGAGTATTTGGATAGTATGTTTATTGTATCGGC; conditions: 10 mM KCl, 2 mM MgSO4 (added), 0.37 mM CaCl2; SSMB1 pH 5.9, 23 °C; 2 µM aptamer, 2 µM NMM; no enhancement over control

binding [1]: no
binding [2]: yes
binding [3]: yes
binding [4]: no
Structure (SMILES): CCc1c(C)c2cc3nc(cc4nc(cc5c(CC)c(C)c(cc1[nH]2)n5C)C(C)=C4CCC(=O)O)C(CCC(=O)O)=C3C
